Laboratory results taken from patent US20230085307A1, “PYRIDAZINONE COMPOUND AND HERBICIDE” (NISSAN CHEMICAL CORPORATION, priority 2019, published 2023).

How the values were obtained:
[1] = test system: oval-leafed pondweed; experiment: Test Example 1: herbicidal activity, application before weed generation under submerged conditions (Table 16, symbol C); format: in vivo, oval-leafed pondweed (Monochoria vaginalis)
How it was run: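 Submerged Wagner pots (alluvial soil, 4 cm water) sown with weed seeds and planted with 2.5-leaf rice seedlings; emulsifiable concentrate diluted in water applied to water surface on sowing day. Held in greenhouse at 25-30 °C; injury scored 0-5 by herbicidal rate after three weeks.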

[2] = test system: Japanese bulrush; experiment: Test Example 2: herbicidal activity, application during weed generation under submerged conditions (Table 17, symbol B); format: in vivo, Japanese bulrush (Schoenoplectus juncoides); conditions: application during weed generation, submerged conditions
How it was run: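 Herbicide emulsion, diluted with water to the chosen amount, is applied onto 4 cm floodwater over alluvial soil where the weeds were co-sown and raised at 25–30° C. Application timing: 1–2 leaves. Assessment: three weeks afterwards.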

[3] = test system: southern crabgrass; experiment: Test Example 4: herbicidal effect by soil treatment (Table 19, symbol F); format: in vivo, southern crabgrass (Digitaria ciliaris)
How it was run: (§1)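 Applied as a water-diluted emulsion, the compound was sprayed onto soil covering newly sown seeds. Evaluation came three weeks after application, in a greenhouse held at 25° C. to 30° C.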

[4] = test system: green foxtail; experiment: Test Example 4: herbicidal effect by soil treatment (Table 19, symbol G); format: in vivo, green foxtail (Setaria viridis)
How it was run: as §1

[5] = test system: barnyard grass; experiment: Test Example 4: herbicidal effect by soil treatment (Table 19, symbol H); format: in vivo, barnyard grass (Echinochloa crus-galli)
How it was run: as §1

[6] = test system: wild oat; experiment: Test Example 4: herbicidal effect by soil treatment (Table 19, symbol I); format: in vivo, wild oat (Avena fatua)
How it was run: as §1

[7] = test system: blackgrass; experiment: Test Example 4: herbicidal effect by soil treatment (Table 19, symbol J); format: in vivo, blackgrass (Alopecurus myosuroides)
How it was run: as §1

[8] = test system: velvetleaf; experiment: Test Example 4: herbicidal effect by soil treatment (Table 19, symbol M); format: in vivo, velvetleaf (Abutilon theophrasti)
How it was run: as §1

[9] = test system: lambsquarters; experiment: Test Example 4: herbicidal effect by soil treatment (Table 19, symbol O); format: in vivo, lambsquarters (Chenopodium album)
How it was run: as §1

[10] = test system: chickweed; experiment: Test Example 4: herbicidal effect by soil treatment (Table 19, symbol P); format: in vivo, common chickweed (Stellaria media)
How it was run: as §1

[11] = test system: persian speedwell; experiment: Test Example 4: herbicidal effect by soil treatment (Table 19, symbol R); format: in vivo, Persian speedwell (Veronica persica)
How it was run: as §1

[12] = test system: Italian ryegrass; experiment: Test Example 5: herbicidal effect by foliage application, plastic box (Table 20, symbol K); format: in vivo, Italian ryegrass (Lolium multiflorum); conditions: foliage application, 3 weeks after application
How it was run: (§2)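 Sow seeds spot-wise in sterilized diluvial soil; cover with ~1.5 cm soil. Grow 14 days in greenhouse, 25° C. to 30° C. Spray foliage with emulsion diluted to predetermined amount. Rate effect after 3 weeks.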

[13] = test system: windgrass; experiment: Test Example 5: herbicidal effect by foliage application, plastic box (Table 20, symbol L); format: in vivo, windgrass (Apera spica-venti); conditions: foliage application, 3 weeks after application
How it was run: as §2

[14] = test system: velvetleaf; experiment: Test Example 5: herbicidal effect by foliage application, plastic box (Table 20, symbol M); format: in vivo, velvetleaf (Abutilon theophrasti); conditions: foliage application, 3 weeks after application
How it was run: as §2

[15] = test system: lambsquarters; experiment: Test Example 5: herbicidal effect by foliage application, plastic box (Table 20, symbol O); format: in vivo, lambsquarters (Chenopodium album); conditions: foliage application, 3 weeks after application
How it was run: as §2

Row | SMILES | Herbicidal effect on C: oval-leafed pondweed (grade 0-5) ([1]; 320 g/ha applied herbicide) | herbicidal effect rating, B: Japanese bulrush ([2]; AAH 320 g/ha) | F: southern crabgrass, herbicidal effect rating ([3]; AAH 320 g/ha) | G: green foxtail, herbicidal effect rating ([4]; AAH 320 g/ha) | H: barnyard grass, herbicidal effect rating ([5]; AAH 320 g/ha) | I: wild oat, herbicidal effect rating ([6]; AAH 320 g/ha) | J: blackgrass, herbicidal effect rating ([7]; AAH 320 g/ha) | M: velvetleaf, herbicidal effect rating ([8]; AAH 320 g/ha) | O: lambsquarters, herbicidal effect rating ([9]; AAH 320 g/ha) | P: chickweed, herbicidal effect rating ([10]; AAH 320 g/ha) | R: persian speedwell, herbicidal effect rating ([11]; AAH 320 g/ha) | effect on Italian ryegrass (K) ([12]; 320 g/ha) | effect on windgrass (L) ([13]; 320 g/ha) | effect on velvetleaf (M) ([14]; 320 g/ha) | effect on lambsquarters (O) ([15]; 320 g/ha) | also measured
1 | C#CC(C)Oc1ccc(-c2sc3ccccc3c2-c2c(OCOCCOC)c(C)nn(C)c2=O)cc1 (racemic) [1-218] |  |  |  |  |  |  |  |  |  |  |  |  |  |  |  | Herbicidal effect on C: oval-leafed pondweed (grade 0-5) ([1]; 100 g/ha applied herbicide): 0 (Herbicidal rate of 5% or less (almost no effect)); herbicidal effect rating, B: Japanese bulrush ([2]; AAH 100 g/ha): 3 (Herbicidal rate of 40% or more and less than 70%); F: southern crabgrass, herbicidal effect rating ([3]; AAH 187 g/ha): 0 (Herbicidal rate of 5% or less (almost no effect)); G: green foxtail, herbicidal effect rating ([4]; AAH 187 g/ha): 3 (Herbicidal rate of 40% or more and less than 70%); H: barnyard grass, herbicidal effect rating ([5]; AAH 187 g/ha): 2 (Herbicidal rate of 20% or more and less than 40%); I: wild oat, herbicidal effect rating ([6]; AAH 187 g/ha): 0 (Herbicidal rate of 5% or less (almost no effect)); J: blackgrass, herbicidal effect rating ([7]; AAH 187 g/ha): 0 (Herbicidal rate of 5% or less (almost no effect)); M: velvetleaf, herbicidal effect rating ([8]; AAH 187 g/ha): 0 (Herbicidal rate of 5% or less (almost no effect)); O: lambsquarters, herbicidal effect rating ([9]; AAH 187 g/ha): 3 (Herbicidal rate of 40% or more and less than 70%); P: chickweed, herbicidal effect rating ([10]; AAH 187 g/ha): 1 (Herbicidal rate of 5% or more and less than 20%); R: persian speedwell, herbicidal effect rating ([11]; AAH 187 g/ha): 5 (Herbicidal rate of 90% or more (almost completely withered)); effect on Italian ryegrass (K) ([12]; 187 g/ha): 2 (Herbicidal rate of 20% or more and less than 40%); effect on windgrass (L) ([13]; 187 g/ha): 0 (Herbicidal rate of 5% or less (almost no effect)); effect on velvetleaf (M) ([14]; 187 g/ha): 4 (Herbicidal rate of 70% or more and less than 90%); effect on lambsquarters (O) ([15]; 187 g/ha): 4 (Herbicidal rate of 70% or more and less than 90%)
2 | COCC(C)Oc1ccc(-c2sc3ccccc3c2-c2c(O)c(C)nn(C)c2=O)cc1 (racemic) [1-228] | 4 (Herbicidal rate of 70% or more and less than 90%) | 3 (Herbicidal rate of 40% or more and less than 70%) | 4 (Herbicidal rate of 70% or more and less than 90%) | 5 (Herbicidal rate of 90% or more (almost completely withered)) | 4 (Herbicidal rate of 70% or more and less than 90%) | 0 (Herbicidal rate of 5% or less (almost no effect)) | 4 (Herbicidal rate of 70% or more and less than 90%) | 4 (Herbicidal rate of 70% or more and less than 90%) | 5 (Herbicidal rate of 90% or more (almost completely withered)) | 4 (Herbicidal rate of 70% or more and less than 90%) | 5 (Herbicidal rate of 90% or more (almost completely withered)) | 4 (Herbicidal rate of 70% or more and less than 90%) | 5 (Herbicidal rate of 90% or more (almost completely withered)) | 5 (Herbicidal rate of 90% or more (almost completely withered)) | 5 (Herbicidal rate of 90% or more (almost completely withered)) | 
3 | CCC(COc1ccc(-c2sc3ccccc3c2-c2c(O)c(C)nn(C)c2=O)cc1)OC (racemic) [1-230] | 4 (Herbicidal rate of 70% or more and less than 90%) | 3 (Herbicidal rate of 40% or more and less than 70%) | 0 (Herbicidal rate of 5% or less (almost no effect)) | 4 (Herbicidal rate of 70% or more and less than 90%) | 3 (Herbicidal rate of 40% or more and less than 70%) | 0 (Herbicidal rate of 5% or less (almost no effect)) | 4 (Herbicidal rate of 70% or more and less than 90%) | 4 (Herbicidal rate of 70% or more and less than 90%) | 5 (Herbicidal rate of 90% or more (almost completely withered)) | 2 (Herbicidal rate of 20% or more and less than 40%) | 5 (Herbicidal rate of 90% or more (almost completely withered)) | 4 (Herbicidal rate of 70% or more and less than 90%) | 4 (Herbicidal rate of 70% or more and less than 90%) | 5 (Herbicidal rate of 90% or more (almost completely withered)) | 5 (Herbicidal rate of 90% or more (almost completely withered)) | 
4 | Cc1nn(C)c(=O)c(-c2c(-c3ccc(OCCBr)cc3)sc3ccccc23)c1O [1-204] | 3 (Herbicidal rate of 40% or more and less than 70%) | 3 (Herbicidal rate of 40% or more and less than 70%) | 0 (Herbicidal rate of 5% or less (almost no effect)) | 0 (Herbicidal rate of 5% or less (almost no effect)) | 0 (Herbicidal rate of 5% or less (almost no effect)) | 0 (Herbicidal rate of 5% or less (almost no effect)) | 0 (Herbicidal rate of 5% or less (almost no effect)) | 0 (Herbicidal rate of 5% or less (almost no effect)) | 3 (Herbicidal rate of 40% or more and less than 70%) | 0 (Herbicidal rate of 5% or less (almost no effect)) | 4 (Herbicidal rate of 70% or more and less than 90%) | 3 (Herbicidal rate of 40% or more and less than 70%) | 0 (Herbicidal rate of 5% or less (almost no effect)) | 5 (Herbicidal rate of 90% or more (almost completely withered)) | 4 (Herbicidal rate of 70% or more and less than 90%) | 
5 | Cc1nn(C)c(=O)c(-c2c(-c3ccc(OCCC(F)(F)F)cc3)sc3ccccc23)c1O [1-206] | 5 (Herbicidal rate of 90% or more (almost completely withered)) | 3 (Herbicidal rate of 40% or more and less than 70%) | 4 (Herbicidal rate of 70% or more and less than 90%) | 5 (Herbicidal rate of 90% or more (almost completely withered)) | 5 (Herbicidal rate of 90% or more (almost completely withered)) | 0 (Herbicidal rate of 5% or less (almost no effect)) | 4 (Herbicidal rate of 70% or more and less than 90%) | 3 (Herbicidal rate of 40% or more and less than 70%) | 5 (Herbicidal rate of 90% or more (almost completely withered)) | 3 (Herbicidal rate of 40% or more and less than 70%) | 5 (Herbicidal rate of 90% or more (almost completely withered)) | 5 (Herbicidal rate of 90% or more (almost completely withered)) | 5 (Herbicidal rate of 90% or more (almost completely withered)) | 5 (Herbicidal rate of 90% or more (almost completely withered)) | 5 (Herbicidal rate of 90% or more (almost completely withered)) | 
